Values joined by “and” are separate entries in the source; they are usually repeats but may differ in a detail not shown here. Equal values may be shown once.
target: Hepatocyte growth factor receptor (Homo sapiens, UniProt P08581); assay: Inhibition Assay
Description: (§1) Inhibition assay using kinase inhibitors.

Sequence of Hepatocyte growth factor receptor (P08581 whole entry): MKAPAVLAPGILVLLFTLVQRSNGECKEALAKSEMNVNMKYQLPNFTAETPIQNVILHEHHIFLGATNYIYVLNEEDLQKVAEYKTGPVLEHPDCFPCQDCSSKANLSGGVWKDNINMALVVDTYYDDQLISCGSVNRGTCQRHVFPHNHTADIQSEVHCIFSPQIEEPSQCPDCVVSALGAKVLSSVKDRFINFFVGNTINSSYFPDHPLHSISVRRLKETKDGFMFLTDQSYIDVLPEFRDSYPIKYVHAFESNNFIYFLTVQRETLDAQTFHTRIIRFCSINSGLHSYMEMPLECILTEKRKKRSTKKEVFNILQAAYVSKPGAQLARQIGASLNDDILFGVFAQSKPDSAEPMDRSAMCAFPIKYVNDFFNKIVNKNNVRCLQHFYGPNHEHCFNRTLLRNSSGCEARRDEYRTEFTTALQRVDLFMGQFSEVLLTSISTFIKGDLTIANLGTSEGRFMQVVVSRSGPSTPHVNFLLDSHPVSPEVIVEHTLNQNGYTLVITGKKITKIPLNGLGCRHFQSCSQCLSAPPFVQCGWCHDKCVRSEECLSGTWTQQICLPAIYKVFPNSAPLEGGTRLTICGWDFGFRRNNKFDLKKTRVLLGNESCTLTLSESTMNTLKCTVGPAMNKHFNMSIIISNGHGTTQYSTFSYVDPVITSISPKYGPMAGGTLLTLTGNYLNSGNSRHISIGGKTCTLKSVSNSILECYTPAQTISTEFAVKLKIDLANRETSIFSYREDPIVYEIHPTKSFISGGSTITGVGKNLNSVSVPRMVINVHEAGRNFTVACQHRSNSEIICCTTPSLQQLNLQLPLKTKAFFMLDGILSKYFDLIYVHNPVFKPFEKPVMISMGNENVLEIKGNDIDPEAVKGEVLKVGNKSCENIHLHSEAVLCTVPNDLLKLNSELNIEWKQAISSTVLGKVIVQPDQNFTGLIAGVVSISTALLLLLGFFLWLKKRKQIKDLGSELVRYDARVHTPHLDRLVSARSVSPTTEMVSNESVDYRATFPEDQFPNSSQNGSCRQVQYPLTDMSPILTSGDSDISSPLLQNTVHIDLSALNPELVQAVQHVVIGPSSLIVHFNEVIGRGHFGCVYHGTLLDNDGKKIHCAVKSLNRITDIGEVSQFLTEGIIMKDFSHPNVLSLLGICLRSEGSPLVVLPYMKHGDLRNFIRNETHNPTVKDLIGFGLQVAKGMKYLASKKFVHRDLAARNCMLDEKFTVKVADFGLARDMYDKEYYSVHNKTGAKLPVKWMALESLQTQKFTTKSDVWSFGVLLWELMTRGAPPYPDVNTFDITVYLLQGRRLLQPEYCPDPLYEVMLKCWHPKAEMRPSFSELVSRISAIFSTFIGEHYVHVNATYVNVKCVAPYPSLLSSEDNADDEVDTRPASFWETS

Structure (SMILES) | IC50
CCn1cnc(-c2cc3nccc(Oc4ccc(NC(=O)N5CCN(c6ccccc6)C5=O)cc4F)c3s2)c1 | 10 nM
COc1cc2nccc(Oc3ccc(NC(=O)N4CCN(c5ccccc5)C4=O)cc3F)c2cc1OC | 10 nM

Second part, the compound after the results:

IC50 | Structure (SMILES)
150 nM | O=C(Nc1cc(Oc2ccc(NC(=O)N3CCN(c4ccccc4)C3=O)cc2F)ncn1)N1CCCC1 [Oxo-3-phenylimidazolidine-1-carboxamide, 3]
230 nM | O=C(Nc1cc(Oc2ccc(NC(=O)N3CCN(c4ccccc4)C3=O)cc2F)ccn1)N1CCCC1 [Oxo-3-phenylimidazolidine-1-carboxamide, 4]
310 nM and 2500 nM | CC(=O)Nc1cc(Oc2ccc(NC(=O)N3CCN(c4ccccc4)C3=O)cc2F)ccn1 [Oxo-3-phenylimidazolidine-1-carboxamide, 5]

target: High affinity nerve growth factor receptor (Homo sapiens, UniProt P04629); assay: Inhibition Assay
Description: as §1

Sequence of High affinity nerve growth factor receptor (P04629 whole entry): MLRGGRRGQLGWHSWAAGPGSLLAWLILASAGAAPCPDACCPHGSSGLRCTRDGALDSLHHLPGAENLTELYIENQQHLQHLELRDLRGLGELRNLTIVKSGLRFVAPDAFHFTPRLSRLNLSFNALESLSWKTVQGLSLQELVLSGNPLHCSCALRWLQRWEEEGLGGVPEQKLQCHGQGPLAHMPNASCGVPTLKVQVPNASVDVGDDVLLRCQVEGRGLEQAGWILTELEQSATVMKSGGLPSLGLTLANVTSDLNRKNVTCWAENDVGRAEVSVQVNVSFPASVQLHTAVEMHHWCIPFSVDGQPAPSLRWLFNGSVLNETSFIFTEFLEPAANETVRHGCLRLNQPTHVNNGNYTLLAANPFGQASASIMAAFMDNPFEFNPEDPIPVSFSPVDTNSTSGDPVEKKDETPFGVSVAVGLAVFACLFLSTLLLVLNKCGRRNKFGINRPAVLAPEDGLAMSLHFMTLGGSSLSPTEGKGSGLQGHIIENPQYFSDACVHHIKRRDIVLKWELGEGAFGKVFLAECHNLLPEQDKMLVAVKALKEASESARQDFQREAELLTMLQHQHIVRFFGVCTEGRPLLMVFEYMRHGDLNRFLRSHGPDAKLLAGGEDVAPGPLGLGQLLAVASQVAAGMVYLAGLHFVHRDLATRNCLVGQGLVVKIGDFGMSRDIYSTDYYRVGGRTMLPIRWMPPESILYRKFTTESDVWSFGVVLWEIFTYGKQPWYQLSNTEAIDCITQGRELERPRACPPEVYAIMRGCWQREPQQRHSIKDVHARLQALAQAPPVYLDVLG

Structure (SMILES) | IC50
Nc1cc(Oc2ccc(NC(=O)N3CCN(c4ccccc4)C3=O)cc2)ccn1 [2-oxoimidazolidine-1-carboxamide, 13] | 20 nM
CC(=O)Nc1cc(Oc2ccc(NC(=O)N3CCN(c4ccc(F)cc4)C3=O)cc2)ccn1 [2-oxoimidazolidine-1-carboxamide, 14] | 3 nM
CNC(=O)Nc1cc(Oc2ccc(NC(=O)N3CCN(c4ccc(F)cc4)C3=O)cc2)ccn1 [2-oxoimidazolidine-1-carboxamide, 16] | 2 nM

Now from value to compound:

IC50 | Structure (SMILES)
4 nM | CC(=O)Nc1cc(Oc2ccc(NC(=O)N3CCN(c4ccccc4)C3=O)cc2)ccn1 [2-oxoimidazolidine-1-carboxamide, 5]
5 nM | CNC(=O)Nc1cc(Oc2ccc(NC(=O)N3CCN(c4ccccc4)C3=O)cc2)ccn1 [2-oxoimidazolidine-1-carboxamide, 15]
4 nM | O=C(NCCN1CCCC1)Nc1cc(Oc2ccc(NC(=O)N3CCN(c4ccc(F)cc4)C3=O)cc2)ccn1 [2-oxoimidazolidine-1-carboxamide, 17]

Reference: BindingDB's records for doi:10.7270/Q2X065P9 (Methylgene, 2012)
